Measurements reported in US20100184820A1, “COMBINATIONS COMPRISING STAUROSPORINES” (priority 2006, published 2010).
Read-outs that look alike come from different tables or passages of the source.

Tests used:
Format in all cases: cell-based, human
[1] = system: HMC-1.1 cells; test: 3H-thymidine incorporation assay; settings: for cell growth / proliferation (in words): HMC-1.1; for IC50: Homo sapiens, read-out: 3H-thymidine uptake (IC50) HMC-1.1
Method: (§1) The human mast cell line HMC-1 generated from leukemic cells in a patient with MCL48 are obtained (Mayo Clinic, Rochester, Minn.). […] HMC-1 cells are re-thawed from an original stock every 4 to 8 weeks and passaged weekly. As control of ‘phenotypic stability’, HMC-1 cells are periodically checked for expression of KIT and the down-modulating effect of IL-4 (100 U/ml, 48 hours).
(§2) In a separate set of experiments, HMC-1 cells are transfected with mcl-1-specific ASO before being exposed to inhibitory drugs (see below). […] After exposure to drugs or/and ASO, cells are subjected to ^3H-thymidine uptake experiments, analysis of cell viability and apoptosis, or Western blotting.
(§3) Thereafter, 1 μCi ^3H-thymidine is added to each well. […] Filters are then air-dried, and the bound radioactivity is measured in a β-counter (Top-Count NXT, Packard Bioscience). All experiments are performed in triplicates. Cell viability is determined by the trypan blue exclusion test. The percentage of apoptotic cells is determined on Wright-Giemsa-stained cytospin slides employing conventional cytomorphologic criteria.

[2] = system: HMC-1.2 cells; test: 3H-thymidine incorporation assay; settings: for IC50: Homo sapiens, read-out: 3H-thymidine uptake (IC50) HMC-1.2
Method: as §1, §2, §3

[3] = system: HMC-1.1 cells; test: induction of apoptosis (percentage of apoptotic cells on Wright-Giemsa-stained cytospin slides); settings: for EC50: Homo sapiens, incubated with drugs for 24 hours
Method: (§4) Scramble control represents a mixture of A (adenine), G (guanine), T (thymine), and C (cytosine) bases, the resulting preparation containing an equimolar mixture of oligonucleotides. […] For transfection, 800,000 cells are seeded in 75 cm^2 culture plates at 37° C. for 24 hours. Mcl-1-ASO and Mcl-1 siRNA are complexed with Lipofectin-Reagent (Invitrogen) in RPMI 1640 medium essentially as described. […] After exposure to ASO, cells are washed and cultured in RPMI 1640 medium with 10% FCS in the presence or absence of various concentrations of TK inhibitors for another 12 hours before being analyzed. siRNA-treated cells are kept in control medium for 12 hours (without TK inhibitors) before being examined for the percentage of apoptotic cells and Western blotting.
(§5) Thereafter, 1 μCi ^3H-thymidine is added to each well. Sixteen hours later, cells are harvested on filter membranes (Packard Bioscience, Meriden, Conn.) in a Filtermate 196 harvester (Packard Bioscience). Filters are then air-dried, and the bound radioactivity is measured in a β-counter (Top-Count NXT, Packard Bioscience). All experiments are performed in triplicates. Cell viability is determined by the trypan blue exclusion test. The percentage of apoptotic cells is determined on Wright-Giemsa-stained cytospin slides employing conventional cytomorphologic criteria.
(§6) METHOD: Effects of mcl-1 antisense oligonucleotides on Mcl-1 protein expression and cell viability in HMC-1.1 and HMC-1.2 cells are analyzed. […] Western Blot analysis of Mcl-1 expression is performed using an anti-Mcl-1 antibody. β-Actin served as loading control. Evaluation of non-viable (trypan blue-positive) cells is expressed as percentage of all nucleated cells. Numbers (%) of apoptotic cells. Results represent the mean±S.D. from 3 independent experiments.
(§7) METHOD: [001] Effects of mcl-1-siRNA are analyzed in neoplastic mast cells on expression of Mcl-1 protein and cell viability in HMC-1.1 cells and HMC-1.2 cells. Cells are left untransfected (Control) or are transfected with either an mcl-1-specific siRNA (mcl-1-siRNA; 200 nM) or a luciferase-specific (control)-siRNA (luc-siRNA; 200 nM) as described herein. Mcl-1 protein expression is determined by Western blotting using a polyclonal anti-Mcl -1 antibody. Equal loading is confirmed by probing for β-Actin. Cell viability is analyzed by recording the percentage (%) of apoptotic cells. Results represent the mean±S.D. from 3 independent experiments in each set of experiments.
(§8) Mcl-1 protein expression is determined by Western blotting using a polyclonal anti-Mcl-1 antibody. Equal loading is confirmed by probing for β-Actin. Cell viability is analyzed by recording the percentage (%) of apoptotic cells.

[4] = system: HMC-1.2 cells; test: as above; settings: for EC50: Homo sapiens, incubated with drugs for 24 hours
Method: as §4, §5, §6, §7, §8

[5] = system: Mcl-1 protein; test: Western blot analysis of Mcl-1 protein expression in HMC-1.1 cells; settings: for expression of the Mcl-1 protein after targeted drugs: HMC-1.1 lacking KIT D816V, PKC412 0.3-10 μM, nilotinib 10-300 nM, imatinib 30-300 nM, 2CdA up to 1,000 ng/ml
Method: (§9) Western blot analysis is performed as described previously using lysates of HMC-1 cells and a polyclonal rabbit anti-human Mcl-1 antibody (Santa Cruz Biotechnology, Santa Cruz, Calif.). In brief, cells are lysed in phosphate buffered saline (PBS) containing 1% Triton-X-100 (Sigma, St. Louis, Mo.). Proteins are separated under reducing conditions by SDS-polyacrylamide gel electrophoresis and transferred to nitrocellulose membranes (Protran, Schleicher & Schuell, Dassel, Germany) in transfer buffer. Membranes are then exposed to anti-mouse/anti-rabbit IgG (BM Chemiluminescence Western blotting Kit, Roche). […] Chemiluminescence is detected by exposure to a Biomax MS film (Kodak).
as §6, §7, §8

[6] = system: Mcl-1 protein; test: Western blot analysis of Mcl-1 protein expression in HMC-1.2 cells; settings: for expression of the Mcl-1 protein after targeted drugs: HMC-1.2 exhibiting KIT D816V, PKC412 1-10 μM, 2CdA 10-100 ng/ml, nilotinib and imatinib over the dose range tested
Method: as §9, §6, §7, §8

[7] = system: HMC-1.1 cells; test: combination of mcl-1 ASO and targeted drugs, combination index (CalcuSyn); settings: drug combined with mcl-1 ASO
Method: To determine the level of significance in differences found in the evaluation of data, the paired student t-test is applied.
Results are expressed as percent of control (=scramble control) without targeted drug and represent the mean±SD of 3 independent experiments are analyzed. […] Results represent the mean±SD of 3 independent experiments. […] A combination index (CI) less than 1 indicates synergism.

[8] = 24 hours of incubation with drug

## Cc1cn(-c2cc(NC(=O)c3ccc(C)c(Nc4nccc(-c5cccnc5)n4)c3)cc(C(F)(F)F)c2)cn1 [nilotinib, 4-methyl-3-[[4-(3-pyridinyl)-2-pyrimidinyl]amino]-N-[5-(4-methyl-1H-imidazol-1-yl)-3-(trifluoromethyl)phenyl]benzamide]
[1]
  cell growth / proliferation (in words): reduce cell growth
[1]; 24 hours of incubation with drugs or transfection with ASO
  IC50: 3 to 10 nM
[2]; 24 hours of incubation with drugs
  IC50: 1000 to 3000 nM
[3]; HMC-1.1
  induction of apoptosis (in words): induce apoptosis
[3]
  EC50: 30 to 80 nM
[4]
  EC50: > 10 µM
[5]
  expression of the Mcl-1 protein after targeted drugs: down-regulate expression
[6]
  expression of the Mcl-1 protein after targeted drugs: no significant effects
[7]
  drug interaction with mcl-1 ASO (synergism, combination index less than 1): only synergistic in HMC-1.1 cells

## mcl-1 siRNA: double-stranded mcl-1 siRNA (AAGAAACGCGGUAAUCGGACU, SEQ ID NO:8, and AGUCCGAUUACCGCGUUUCUU, SEQ ID NO:9) (chain 1 AAGAAACGCGGUAAUCGGACU; chain 2 AGUCCGAUUACCGCGUUUCUU; listed as RNA, chemistry not given here; listed as Homo sapiens)
[3]; HMC-1.1, siRNA 200 nM, 12 hours
  apoptotic cells: increase in apoptotic cells
[4]; HMC-1.2, siRNA 200 nM, 12 hours
  apoptotic cells: increase in apoptotic cells
[5]; HMC-1.1, siRNA 200 nM
  expression of the Mcl-1 protein: downregulate expression
[6]; HMC-1.2, siRNA 200 nM
  expression of the Mcl-1 protein: downregulate expression

## Cc1ccc(NC(=O)c2ccc(CN3CCN(C)CC3)cc2)cc1Nc1nccc(-c2cccnc2)n1 [Imatinib]
[3]; HMC-1.1
  induction of apoptosis (in words): induce apoptosis
[5]
  expression of the Mcl-1 protein after targeted drugs: down-regulate expression
[6]
  expression of the Mcl-1 protein after targeted drugs: no significant effects

## CO[C@@H]1[C@H](N(C)C(=O)c2ccccc2)C[C@H]2O[C@]1(C)n1c3ccccc3c3c4c(c5c6ccccc6n2c5c31)C(=O)NC4 [PKC412, N-[(9S,10R,11R,13R)-2,3,10,11,12,13-hexahydro-10-methoxy-9-methyl-1-oxo-9,13-epoxy-1H,9H-diindolo[1,2,3-gh:3′,2′,1′-lm]pyrrolo[3,4-j][1,7]benzodiazonin-11-yl]-N-methylbenzamide]
[1]
  cell growth / proliferation (in words): reduce cell growth
[2]; HMC-1.2, pharmacologically relevant concentrations
  cell growth / proliferation (in words): counteract cell growth
[3]; HMC-1.1
  induction of apoptosis (in words): induce apoptosis
[5]
  expression of the Mcl-1 protein after targeted drugs: down-regulate expression
[6]
  expression of the Mcl-1 protein after targeted drugs: decreased the expression

## Nc1nc(Cl)nc2c1ncn2[C@H]1C[C@H](O)[C@@H](CO)O1 [2CdA, 2-chlorodeoxyadenosine]
[1]; [8]
  IC50: 0.1 to 0.3 µg/mL
[2]; [8]
  IC50: 0.005 to 0.02 µg/mL
[3]; HMC-1.1
  induction of apoptosis (in words): no significant effect
[3]
  EC50: > 1 µg/mL
[4]
  EC50: > 1 µg/mL
